We go through eleven molecules from PubChem BioAssay (NCI).

Assay in all cases: NCI anticancer screen, dose series, 48 h
Assay [1] concerns A549 NSCLC.
Assay [2] has as its system CCRF-CEM leukemia.
The subject of assay [3] is NCI-H226 lung.
Assay [4] has as its system NCI-H23 lung.
For assay [5], the system named is SK-MEL-28 melanoma.
In assay [6] the test system is SNB-75 CNS.
The test system of assay [7] is SW-620 colon.
Assay [8] deals with UACC-257 melanoma.
In assay [9] the test system is LOX IMVI melanoma.
For assay [10], the system named is RXF 393 renal.

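In this assay, cells in 96-well plates receive the compound at five concentrations for 48 hours. Endpoints are linearly interpolated between the surrounding concentrations. Here, GI50 denotes the concentration required for 50% inhibition of growth. TGI: total growth inhibition.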

Turning to `CCN(CC)CCCCC1CCN(CC(=O)N2c3ccccc3NC(=O)c3ccccc32)CC1`, the TGI in assay [1], in assay [2], in [3], in assay [4], in [5] and in assay [6] was above 100 µM each time. Moreover, the TGI in [7] and in [8] was above 100 µM each time.

For `C1=CCN(c2ccccc2)CC1`, the TGI in [1] was above 100 µM; in assay [2], above 100 µM; in [9] it was above 100 µM; in [4], above 100 µM; in assay [10], 35.7 µM; in assay [5] it was 73.9 µM. The figures for the TGI in [6], in assay [7] and in assay [8] were above 100 µM, 47.3 µM and above 100 µM, respectively.

As for `CCCOC(=O)c1cc(C(=CCC[C@H]2CC[C@@]3(C)[C@@H](CC[C@@H]4[C@@H]3CC[C@]3(C)[C@@H](C(C)CCCC(C)C)CC[C@@H]43)C2)c2cc(Cl)c(O)c(C(=O)OCCC)c2)cc(Cl)c1O` (some centres undefined), the TGI in assay [2], in assay [9], in [3], in assay [4], in assay [6] and in assay [7] was above 50 µM each time.

For `CC(SC1=CC(=O)c2c(Cl)ccc(O)c2C1=O)C(=O)O` (centres undefined), the TGI in assay [1] is 48.1 µM; in assay [2] it was above 100 µM; in assay [9], 21.7 µM; in assay [3], 57.3 µM; in [5], 32.9 µM; in assay [6], 31 µM. The TGI in assay [7] turned out to be 36.2 µM; in assay [8], 30.3 µM.

As to `C/C(C=O)=C1\C(O)C[C@]1(C)C1CC(C)(C)CC1O` (some centres undefined), the TGI in assay [1], in assay [2], in assay [9], in assay [3], in assay [4] and in assay [10] was above 100 µM each time. Besides, the TGI in [5], in assay [7] and in assay [8] was above 100 µM each time.

On to `Cn1c(=O)nc2n(CCO)c(-c3ccccc3)c(-c3ccccc3)nc-2c1=O`, for which the TGI in assay [1], in assay [2], in [9], in [3], in assay [4] and in assay [10] was above 100 µM each time. Moreover, the TGI in assay [5], in [6], in assay [7] and in assay [8] was above 100 µM in each case.

As to `CCc1cc(Cc2cc(CC)c(NC(=O)C3=CC(=O)CC(c4ccc(OC)cc4)O3)c(CC)c2Cl)c(Cl)c(CC)c1NC(=O)C1=CC(=O)CC(c2ccc(OC)cc2)O1` (centres undefined), the TGI in assay [1] was determined as 43.8 µM; in assay [2], 90.2 µM; in assay [9], 32.4 µM; in assay [3], 47.5 µM; in assay [4] it was 32 µM; in assay [10], 34.7 µM. Moreover, the TGI was found to be 41.4 µM in assay [5], 46.2 µM in [6], 20.9 µM in assay [7] and 36.8 µM in [8].

Turning to `Cc1ccc(S(=O)(=O)N/N=C2\C(=O)C3CC2C(Cl)C3Cl)cc1` (centres undefined), the TGI in [1], in assay [2], in [9], in [3], in assay [4] and in assay [5] was above 100 µM each time. Moreover, the TGI in [6], in assay [7] and in assay [8] was above 100 µM in each case.

As for `c1ccc(C2=NN(c3ccccc3)C3(S2)SC(c2ccccc2)(c2ccccc2)c2ccccc23)cc1` (centres undefined), the TGI in assay [1], in assay [2], in [9], in [3], in [4] and in assay [5] was above 100 µM each time. Also, the TGI in [6], in [7] and in assay [8] was above 100 µM each time.

Consider `Clc1cc(Cl)cc(N2N=C(c3cccc(Nc4ccncc4)c3)CC2c2ccccc2)c1` (centres undefined), for which the GI50 in assay [2] was 2.92 µM; in assay [3] it was 14 µM; in [4], 1.81 µM; in assay [5], 1.76 µM; in [6], 1.45 µM; in [7] it was 1.85 µM. In addition, the TGI in assay [2] is above 100 µM; in [3], 38.7 µM; in assay [4], 3.91 µM; in assay [5], 3.21 µM; in assay [6], 5.38 µM; in [7] it was 3.73 µM.

In the case of `O=C1/C(=C/c2cccc([N+](=O)[O-])c2)COc2ccccc21`, the TGI in assay [1] was above 100 µM; in [9] it was 3.44 µM; in assay [3], 22.6 µM; in assay [4], 18.2 µM; in assay [10], 12.8 µM; in [5], 7.42 µM. Further, the values for the TGI in assay [6], in assay [7] and in assay [8] were above 61.5 µM, 2.09 µM and above 64.7 µM, respectively.
